SMILES strings stand for the structures. Square brackets hold non-standard residues; d marks the D form. Peptide text beside a SMILES is read from it. tBuAla = CC(C)(C)C[C@H](N)C(=O)O

In general, Ki refers to the equilibrium dissociation constant of an inhibitor or competing ligand from its target. A high value points to lower affinity.

In this test the target is T1, Telomeric repeat-binding factor 2 (Homo sapiens, UniProt Q15554).
T1 sequence (Q15554 whole entry): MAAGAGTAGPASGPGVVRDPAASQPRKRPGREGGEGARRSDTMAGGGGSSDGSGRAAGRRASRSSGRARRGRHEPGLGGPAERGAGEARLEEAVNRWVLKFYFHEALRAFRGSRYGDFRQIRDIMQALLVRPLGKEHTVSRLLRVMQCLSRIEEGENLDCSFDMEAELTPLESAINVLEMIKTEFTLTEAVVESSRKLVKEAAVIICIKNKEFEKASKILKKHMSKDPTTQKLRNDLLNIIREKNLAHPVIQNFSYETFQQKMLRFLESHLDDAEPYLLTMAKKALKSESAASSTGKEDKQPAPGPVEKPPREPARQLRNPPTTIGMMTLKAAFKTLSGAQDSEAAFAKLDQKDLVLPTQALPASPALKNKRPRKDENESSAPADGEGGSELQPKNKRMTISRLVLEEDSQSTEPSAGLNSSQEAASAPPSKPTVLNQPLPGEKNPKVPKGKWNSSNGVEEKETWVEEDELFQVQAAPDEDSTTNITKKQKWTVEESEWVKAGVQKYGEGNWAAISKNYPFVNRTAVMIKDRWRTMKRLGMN
In words: Displacement of 5-((2R,6S,9S,12S,15S,18S,21S,24S)-3-((S)-2-((S)-1-amino-3-methyl-1-oxobutan-2-ylcarbamoyl)pyrrolidine-1-carbonyl)-15-(4-aminobutyl)-2-hydroxy-12-(4-hydroxybenzyl)-6,9,18,24-tetraisobutyl-21-methyl-5,8,11,14,17,20,23,26,29-nonaoxo-4,7,10,13,16,19,22,25,28-nonaazatetratriacontan-34-ylcarbamoyl)-2-(6-hydroxy-3-oxo-3H-xanthen-9-yl)benzoic acid from TRF2 TRFH domain (unknown origin) after 30 mins by fluorescence polarization assay. Background: Fluorescence polarisation rises when a labelled molecule tumbles more slowly, as on binding a larger partner.
`CC(=O)N[C@@H](CC(C)C)C(=O)N[C@@H](C)C(=O)N[C@@H](CC(C)C)C(=O)N[C@@H](CCCCN)C(=O)N[C@@H](Cc1ccc(O)cc1)C(=O)N[C@@H](CC(C)C)C(=O)N[C@@H](CC(C)C)C(=O)N[C@H](C(=O)N1CCC[C@H]1C(=O)O)[C@@H](C)O` (Ac-LALKYLLTP-OH) returned a Ki of 1.89 µM.
The result for `CC(=O)N[C@@H](CC(C)C)C(=O)N[C@@H](C)C(=O)N[C@@H](CC(C)C)C(=O)N[C@@H](CCCCN)C(=O)N[C@@H](Cc1ccc(O)cc1)C(=O)N[C@@H](CC(C)C)C(=O)N[C@@H](CC(C)(C)C)C(=O)N[C@H](C(=O)N1CCC[C@H]1C(=O)N[C@H](C(N)=O)C(C)C)[C@@H](C)O` (Ac-LALKYL[tBuAla]TPV-NH2) reads 6.1 µM; that for `CC(C)C[C@@H]1NC(=O)[C@@H](NC(=O)[C@@H](N)Cc2ccccc2)CCCCCCCC[C@@H](C(=O)N(C)C)NC(=O)[C@@H]2CCCN2C(=O)[C@H](C)NC1=O`, 43.2 µM.
The result for `CC(=O)N[C@@H](CC(C)C)C(=O)N[C@@H](C)C(=O)N[C@@H](CC(C)C)C(=O)N[C@@H](C)C(=O)N[C@@H](Cc1ccc(O)cc1)C(=O)N[C@@H](CC(C)C)C(=O)N[C@@H](CC(C)C)C(=O)N[C@H](C(=O)N1CCC[C@H]1C(=O)N[C@H](C(N)=O)C(C)C)[C@@H](C)O` (Ac-LALAYLLTPV-NH2) reads 3.2 µM.

For the origin of these results see ChEMBL document CHEMBL4145602, “Cyclic Peptidic Mimetics of Apollo Peptides Targeting Telomeric Repeat Binding Factor 2 (TRF2) and Apollo Interaction” (ACS Med Chem Lett, 2018).
